Laboratory results taken from the supplement of paper PMC11821682.

Columns and labels:
Danio rerio embryo [1] = experiment: LEL embryonic photomotor response 24 hpf
Description: (§1)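 ZBEscreen: dechorionated Tropical 5D zebrafish embryos were exposed from 4 hpf in 96-well plates (1% DMSO, 28 °C). All compounds were first tested at 100 µM; hits were retested at 0.005-100 µM. Morphology and mortality were scored at 120 hpf and fitted as BMC10 (3-parameter log-logistic, extra risk). The embryonic photomotor response at 24 hpf and the larval photomotor response at 120 hpf are given as lowest effect levels (K-S test, p<0.01). NA = not significant up to 100 µM; NT = not tested.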

Danio rerio embryo [2] = experiment: LEL larval photomotor response dark phase 120 hpf
Description: as §1

Danio rerio embryo [3] = experiment: BMC10 any morphological effect or mortality at 120 hpf; higher = less toxic
HL-60 = experiment: Cell Health Index (toxicity pseudo-probability over dose series) (index 0-1); higher = more cytotoxic / cell stress;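 also: HL-60 cells exposed 4 h at 37 °C to ten threefold dilutions spanning 5 nM to 100 µM, multiparametric flow cytometry features scored by machine-learning classification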

| SMILES | LEL embryonic photomotor response 24 hpf (Danio rerio embryo [1]) [µM] | LEL larval photomotor response dark phase 120 hpf (Danio rerio embryo [2]) [µM] | BMC10 any morphological effect or mortality (Danio rerio embryo [3]) [µM] | Cell Health Index (HL-60) |
| --- | --- | --- | --- | --- |
| O=c1ccc2cc3ccoc3cc2o1 [Psoralen] | 100 | 33.3 | 29.2 | 0.105 |
| CC(C)[C@H](NC(=O)[C@H](CCCNC(=N)N)NC(=O)NC(Cc1ccccc1)C(=O)O)C(=O)NC(C=O)CCCNC(=N)N.Cl.Cl (some centres undefined) [Antipain] | > 100 | > 100 | > 100 | 0.154 |
| O=C(O[C@@H]1Cc2c(O)cc(O)cc2O[C@H]1c1cc(O)c(O)c(O)c1)c1cc(O)c(O)c(O)c1 [(-)-Gallocatechin gallate] | > 100 | > 100 | > 100 | 0.859 |
| CO[C@H]1O[C@@H]2O[C@@]3(C)CC[C@H]4[C@H](C)CC[C@@H]([C@H]1C)[C@@]24OO3 [Artemether] | 11.1 | 0.41 | 3.55 | 0.289 |
| C=C[C@H]1C[N@@]2CC[C@H]1C[C@@H]2[C@@H](O)c1ccnc2ccc(OC)cc12 [Quinidine] | > 100 | > 100 | > 100 | 0.197 |
| CC(C)c1nc(CN(C)C(=O)N[C@@H](CCN2CCOCC2)C(=O)N[C@H](CC[C@H](Cc2ccccc2)NC(=O)OCc2cncs2)Cc2ccccc2)cs1 [Cobicistat] | > 100 | > 100 | > 100 | 0.831 |
| CC(C)C[C@H](NC(=O)[C@H]1O[C@@H]1C(=O)O)C(=O)NCCCCNC(=N)N [E-64] | > 100 | > 100 | > 100 | 0.121 |
| COc1cc(C[C@H]2C(=O)OC[C@@H]2Cc2ccc(OC)c(OC)c2)ccc1O [Arctigenin] | > 100 | 3.7 | > 100 | 0.617 |
| CC(=O)O/N=C1/C(=C2\C(=O)Nc3cc(Br)ccc32)Nc2ccccc21 [BIO-Acetoxime] | > 100 | 33.3 | > 100 | 0.715 |
| COc1cc(-c2oc3cc(O)cc(O)c3c(=O)c2O[C@@H]2O[C@H](CO[C@@H]3O[C@@H](C)[C@H](O)[C@@H](O)[C@H]3O)[C@@H](O)[C@H](O)[C@H]2O)ccc1O [Narcissoside] | > 100 | > 100 | > 100 | 0.248 |
| O=C(Nc1ccccc1F)N[C@H]1N=C(c2ccccc2)c2ccccc2NC1=O [RSV-604] | > 100 | > 100 | > 100 | 0.368 |
| Cc1ccc(NC(=O)C(=O)NC2CC(C)(C)NC(C)(C)C2)cc1 [YYA-021] | 100 | 33.3 | > 100 | 0.184 |
| OC[C@H]1O[C@@H](O[C@@H]2OC=C[C@H]3[C@H](O)[C@@H]4O[C@]4(CO)[C@@H]23)[C@H](O)[C@@H](O)[C@@H]1O [Catalpol] | > 100 | > 100 | > 100 | 0.184 |
| Cc1ccc(C2Nc3ccccc3C(=O)N2c2ccccc2)s1 (centres undefined) [Retro-2] | 0.14 | > 100 | 0.795 | 0.241 |
| Cl.N=c1ccn2c(n1)O[C@H]1[C@H](O)[C@@H](CO)O[C@H]12 [Cyclocytidine] | > 100 | > 100 | > 100 | 0.207 |
| OC1=CC(OC)=C(C(CC(C2=CC=C(O)C=C2)O3)=O)C3=C1C/C=C(C)/C (centres undefined) [Isoxanthohumol] | > 100 | > 100 | > 100 | 0.183 |
| CC(=O)c1c(O)cc(O)cc1O.O [Phloroacetophenone] | > 100 | > 100 | > 100 | 0.231 |
| O=C(Nc1c(Cl)cncc1Cl)c1ccc(OC(F)F)c(OCC2CC2)c1 [Roflumilast] | 0.015 | 0.14 | > 100 | 0.296 |
| S=C([S-])OC1CC2CC1C1CCCC21.[K+] (centres undefined) [D609 parent] | > 100 | > 100 | > 100 | 0.277 |
| COc1cc(NC(C)CCCN)c2ncccc2c1.O=P(O)(O)O.O=P(O)(O)O (centres undefined) [Primaquine] | > 100 | > 100 | > 100 | 0.352 |
| Cc1cc(C#N)cc(C)c1Oc1nc(Nc2ccc(C#N)cc2)nc(N)c1Br [Etravirine] | > 100 | > 100 | > 100 | 0.898 |

| SMILES | LEL embryonic photomotor response 24 hpf (Danio rerio embryo [1]) [µM] | LEL larval photomotor response dark phase 120 hpf (Danio rerio embryo [2]) [µM] | BMC10 any morphological effect or mortality (Danio rerio embryo [3]) [µM] | Cell Health Index (HL-60) |
| --- | --- | --- | --- | --- |
| FC(F)(F)c1cc(C(F)(F)F)c2ccc3nc(-c4nnco4)cn3c2n1 [RO8191] | 11.1 | 11.1 | 26.9 | 0.274 |
| Oc1cc(O)c2c(c1)O[C@H](c1ccc(O)c(O)c1)[C@H](O)[C@H]2c1c(O)cc(O)c2c1O[C@H](c1ccc(O)c(O)c1)[C@@H](O)C2 [Procyanidin B1] | > 100 | > 100 | > 100 | 0.406 |
| CCOC(=O)c1ccc(OC(=O)CCCCCNC(=N)N)cc1.CS(=O)(=O)O [Gabexate] | > 100 | > 100 | > 100 | 0.22 |
| COc1c2c(cc3c1-c1c(cc4c(c1OC)OCO4)CC(C)C(C)C3)OCO2 (centres undefined) [Schisandrin C] | 11.1 | > 100 | 2.06 | 0.61 |
| CCC(CC)O[C@@H]1C=C(C(=O)O)C[C@H](N)[C@H]1NC(C)=O [Oseltamivir acid] | 0.046 | > 100 | > 100 | 0.174 |
| C=C1CC[C@@H]2[C@](C)(CO)[C@H](O)CC[C@@]2(C)[C@@H]1/C=C/C1=CCOC1=O [14-deoxy-11,12-didehydro Andrographolide] | 100 | > 100 | > 100 | 0.43 |
| C[C@H](NC(=O)Cc1cc(F)cc(F)c1)C(=O)N[C@@H]1C(=O)N(C)c2ccccc2-c2ccccc21 [DBZ] | 11.1 | 0.41 | 0.365 | 0.293 |
| CCC(=O)c1ccc(F)c([C@@H]2C[C@@H]2NC(=O)Nc2ccc(C#N)cn2)c1O [MIV-150] | > 100 | > 100 | > 100 | 0.306 |
| C[C@@]1(O)[C@H](O)[C@@H](CO)O[C@H]1n1ccc(N)nc1=O [2'-C-Methylcytidine] | > 100 | > 100 | > 100 | 0.129 |
| O=C(O)CCCCC1CCSS1 (racemic) [DL-alpha-Lipoic acid] | > 100 | > 100 | > 100 | 0.172 |
| O=C(NCc1ccco1)c1ccc2c(c1)N(Cc1c(F)cccc1Cl)C(=O)CS2 [G10] | 11.1 | > 100 | > 100 | 0.311 |
| N#C/C(=C\c1ccc(O)c(O)c1)C(=O)NCCCc1ccccc1 [Tyrphostin AG 555] | > 100 | > 100 | 1.13 | 0.494 |
| O.O=c1c(O)c(-c2ccc(O)c(O)c2)oc2cc(O)cc(O)c12 [Quercetin] | > 100 | > 100 | > 100 | 0.461 |
| CCN(CC)Cc1cc(Nc2ccnc3cc(Cl)ccc23)ccc1O [Amodiaquine] | 1.23 | 11.1 | 4.04 | 0.271 |
| O=C1NC(=O)c2c1c1c3ccccc3[nH]c1c1[nH]c3ccccc3c21 [Arcyriaflavin A] | > 100 | > 100 | 1.1 | 0.393 |
| CS(=O)(=O)O.CS(=O)(=O)O.N=C(N)Nc1ccc(C(=O)Oc2ccc3cc(C(=N)N)ccc3c2)cc1 [Nafamostat] | > 100 | > 100 | > 100 | 0.422 |
| CCOC(=O)[C@H]1O[C@@H]1C(=O)N[C@@H](CC(C)C)C(=O)NCCC(C)C [Aloxistatin] | 33.3 | > 100 | 10.6 | 0.151 |
| C=C[C@@H]1C[C@]1(NC(=O)[C@@H]1C[C@H](Oc2ncc(OC)c3ccc(Cl)cc23)CN1C(=O)[C@@H](NC(=O)OC(C)(C)C)C(C)(C)C)C(=O)NS(=O)(=O)C1CC1 [Asunaprevir] | 11.1 | 3.7 | > 100 | 0.536 |
| C[C@H]1CO[C@@H]2Cn3cc(C(=O)NCc4ccc(F)cc4F)c(=O)c(O)c3C(=O)N12 [Cabotegravir] | > 100 | > 100 | > 100 | 0.321 |
| Nc1ccc(C(=O)Nc2cccc(-c3nc(N4CCOCC4)c4oc5ncccc5c4n3)c2)cn1 | – | – | > 100 | 0.615 |
| CC(C)CN(C[C@@H](O)[C@H](Cc1ccccc1)NC(=O)O[C@H]1CCOC1)S(=O)(=O)c1ccc(N)cc1 [Amprenavir] | – | – | > 100 | 0.181 |
